Columns and labels:
[1] = 298.15 K; 101.33 kPa; Liquid
[2] = xn = mol fraction of the nth substance listed; settings: 298.15 K, 101.33 kPa, Liquid
[3] = relative permittivity at various frequencies (dimensionless); xn = mol fraction of the nth substance listed; settings: 298.15 K, 101.33 kPa, Liquid, Frequency=0.03 MHz, Parallel plate capacitor

CCCCCO [pentan-1-ol]
Settings | mass density [kg/m3]
[1] | 810.883

CCCCCCCCCCCC [dodecane] + CCCCO
Settings | mass density [kg/m3] | relative permittivity
[2], x2 = 0.00247 | 745.45 | –
[2], x2 = 0.00337 | 745.455 | –
[2], x2 = 0.00504 | 745.466 | –
[2], x2 = 0.0089 | 745.497 | –
[2], x2 = 0.01274 | 745.535 | –
[2], x2 = 0.01568 | 745.569 | –
[2], x2 = 0.02553 | 745.703 | –
[2], x2 = 0.04126 | 745.979 | –
[2], x2 = 0.06044 | 746.372 | –
[2], x2 = 0.07754 | 746.736 | –
[2], x2 = 0.1034 | 747.278 | –
[3], x2 = 0.000394 | – | 2.00775
[3], x2 = 0.001092 | – | 2.00861
[3], x2 = 0.001852 | – | 2.00955
[3], x2 = 0.002663 | – | 2.01056
[3], x2 = 0.003575 | – | 2.01169
[3], x2 = 0.004582 | – | 2.01295
[3], x2 = 0.005742 | – | 2.01438
[3], x2 = 0.007082 | – | 2.016
[3], x2 = 0.008478 | – | 2.01762
[3], x2 = 0.009996 | – | 2.0193
[3], x2 = 0.01196 | – | 2.02134
[3], x2 = 0.01472 | – | 2.02405
[3], x2 = 0.01783 | – | 2.02693
[3], x2 = 0.02067 | – | 2.02939
[3], x2 = 0.0262 | – | 2.03399
[3], x2 = 0.03349 | – | 2.03984
[3], x2 = 0.04201 | – | 2.04663
[3], x2 = 0.05197 | – | 2.05466
[3], x2 = 0.06201 | – | 2.06298
[3], x2 = 0.07269 | – | 2.07228
[3], x2 = 0.08613 | – | 2.08475
[3], x2 = 0.09876 | – | 2.09732

CCCCCCCCCO [nonan-1-ol]
Settings | mass density [kg/m3]
[1] | 824.263

CCO [ethanol]
Settings | mass density [kg/m3]
[1] | 785.055

CCCCO [butan-1-ol]
Settings | mass density [kg/m3]
[1] | 805.767

CCCCCCCO [heptan-1-ol] + CCCCCCCCCCCC
Settings | mass density [kg/m3] | relative permittivity
[2], x1 = 0.00183 | 745.491 | –
[2], x1 = 0.00384 | 745.55 | –
[2], x1 = 0.00719 | 745.657 | –
[2], x1 = 0.01509 | 745.934 | –
[2], x1 = 0.02602 | 746.357 | –
[2], x1 = 0.03537 | 746.74 | –
[2], x1 = 0.04943 | 747.341 | –
[2], x1 = 0.06486 | 748.019 | –
[2], x1 = 0.08181 | 748.778 | –
[2], x1 = 0.1023 | 749.709 | –
[3], x1 = 0.000586 | – | 2.00786
[3], x1 = 0.001199 | – | 2.00865
[3], x1 = 0.001873 | – | 2.00953
[3], x1 = 0.002621 | – | 2.01049
[3], x1 = 0.003507 | – | 2.01164
[3], x1 = 0.004712 | – | 2.01319
[3], x1 = 0.006033 | – | 2.01489
[3], x1 = 0.007493 | – | 2.0167
[3], x1 = 0.009131 | – | 2.01867
[3], x1 = 0.01103 | – | 2.02082
[3], x1 = 0.01345 | – | 2.02338
[3], x1 = 0.01639 | – | 2.02628
[3], x1 = 0.02108 | – | 2.03055
[3], x1 = 0.02571 | – | 2.03449
[3], x1 = 0.03171 | – | 2.03943
[3], x1 = 0.0379 | – | 2.0444
[3], x1 = 0.04415 | – | 2.0494
[3], x1 = 0.0517 | – | 2.05543
[3], x1 = 0.06004 | – | 2.06219
[3], x1 = 0.07079 | – | 2.07111
[3], x1 = 0.08135 | – | 2.08016
[3], x1 = 0.09339 | – | 2.09089
[3], x1 = 0.1085 | – | 2.10505

CCCCCCCCCCCC [dodecane] + CCO
Settings | mass density [kg/m3] | relative permittivity
[2], x2 = 0.00284 | 745.404 | –
[2], x2 = 0.0035 | 745.397 | –
[2], x2 = 0.00482 | 745.386 | –
[2], x2 = 0.0076 | 745.363 | –
[2], x2 = 0.01169 | 745.338 | –
[2], x2 = 0.01342 | 745.329 | –
[2], x2 = 0.0189 | 745.313 | –
[2], x2 = 0.02678 | 745.305 | –
[2], x2 = 0.04127 | 745.348 | –
[2], x2 = 0.06055 | 745.432 | –
[2], x2 = 0.08084 | 745.514 | –
[2], x2 = 0.09645 | 745.601 | –
[3], x2 = 0.000779 | – | 2.00812
[3], x2 = 0.001608 | – | 2.00915
[3], x2 = 0.002571 | – | 2.01035
[3], x2 = 0.003578 | – | 2.0116
[3], x2 = 0.004642 | – | 2.01293
[3], x2 = 0.005982 | – | 2.01453
[3], x2 = 0.007701 | – | 2.01653
[3], x2 = 0.009387 | – | 2.0184
[3], x2 = 0.01111 | – | 2.02022
[3], x2 = 0.01308 | – | 2.02209
[3], x2 = 0.01589 | – | 2.02461
[3], x2 = 0.02008 | – | 2.02815
[3], x2 = 0.02502 | – | 2.03214
[3], x2 = 0.03098 | – | 2.03689
[3], x2 = 0.03829 | – | 2.04274
[3], x2 = 0.04601 | – | 2.04907
[3], x2 = 0.055 | – | 2.05682
[3], x2 = 0.06553 | – | 2.06649
[3], x2 = 0.07632 | – | 2.07716
[3], x2 = 0.08814 | – | 2.08986
[3], x2 = 0.1017 | – | 2.10596

CCCCCCCCCO [nonan-1-ol] + CCCCCCCCCCCC
[2]
Settings | mass density [kg/m3]
x1 = 0.00099 | 745.467
x1 = 0.0047 | 745.637
x1 = 0.00777 | 745.786
x1 = 0.01456 | 746.133
x1 = 0.02651 | 746.79
x1 = 0.03533 | 747.291
x1 = 0.05117 | 748.212
x1 = 0.06465 | 749.011
x1 = 0.08043 | 749.97
x1 = 0.09832 | 751.064

CCCCCCO [hexan-1-ol] + CCCCCCCCCCCC
Settings | mass density [kg/m3] | relative permittivity
[2], x1 = 0.00175 | 745.477 | –
[2], x1 = 0.0046 | 745.539 | –
[2], x1 = 0.00826 | 745.625 | –
[2], x1 = 0.01788 | 745.888 | –
[2], x1 = 0.02646 | 746.157 | –
[2], x1 = 0.03537 | 746.455 | –
[2], x1 = 0.04959 | 746.947 | –
[2], x1 = 0.0656 | 747.525 | –
[2], x1 = 0.07934 | 748.03 | –
[2], x1 = 0.09708 | 748.704 | –
[3], x1 = 0.000504 | – | 2.00799
[3], x1 = 0.001087 | – | 2.00873
[3], x1 = 0.001795 | – | 2.00963
[3], x1 = 0.002783 | – | 2.01089
[3], x1 = 0.004043 | – | 2.0125
[3], x1 = 0.005459 | – | 2.0143
[3], x1 = 0.006744 | – | 2.0159
[3], x1 = 0.008507 | – | 2.01802
[3], x1 = 0.01046 | – | 2.02024
[3], x1 = 0.01278 | – | 2.02269
[3], x1 = 0.01656 | – | 2.02639
[3], x1 = 0.02 | – | 2.02952
[3], x1 = 0.02535 | – | 2.03412
[3], x1 = 0.03116 | – | 2.03887
[3], x1 = 0.03741 | – | 2.04388
[3], x1 = 0.04472 | – | 2.0497
[3], x1 = 0.05324 | – | 2.05652
[3], x1 = 0.06176 | – | 2.06346
[3], x1 = 0.07197 | – | 2.072
[3], x1 = 0.08324 | – | 2.08177
[3], x1 = 0.0941 | – | 2.09164
[3], x1 = 0.1052 | – | 2.10222

CO [methanol]
Settings | mass density [kg/m3]
[1] | 786.538

Reference: the NIST ThermoML archive (doi:10.1021/je050116g)
